Measurements from US20180085373A1, “THERAPEUTIC AND/OR PROPHYLACTIC AGENT FOR LEWY BODY DISEASE” (KYOWA HAKKO KIRIN CO., LTD., priority 2015, published 2018).

Tests used:
[1] = tested on: Slc:ICR mice; assay: Gait test (CatWalk XT), evaluation of motor function in NAC61-95 α-synucleinopathy model; assay type: in vivo; conditions: NAC61-95-treated mice
Protocol: (§1) By reference to articles (Science, 338, p. 949 (2012); Behavioral Brain Research, 208, p. 274 (2010)), an animal model capable of confirming a therapeutic and/or prophylactic effect on α-synucleinopathy (for example, Lewy body disease, the Lewy body disease includes cognitive impairment in Parkinson's disease, diffuse Lewy body disease, dementia with Lewy bodies, movement disorder associated with Lewy body disease and the like) was prepared as follows.
(§2) The cognitive function was evaluated using a spontaneous alternation task. The spontaneous alternation task is known as an evaluation system of cognitive function utilizing properties of an animal to willingly explore a novel environment (Neuroscience and Biobehavioral Reviews 28, p. 497 (2004)). That is, if the animal remembers the arm into which it entered previously in an exploration in a Y-maze apparatus, the behavior of spontaneous entry into a different arm was expressed by an alternation behavior rate, and used as an index of cognitive function. The motor function was evaluated by analyzing gait function under natural walk conditions using a gait function/automatic gait analysis system.
(§3) NAC61-95 (custom, Sigma) was dissolved in PBS to prepare 4 μg/μL NAC61-95 solution.
Under pentobarbital (Somnopentyl, Kyoritsuseiyaku) (50 mg/kg, i.p.) anesthesia, 5 μL of NAC61-95 solution was injected using a Hamilton syringe (10 μL) equipped with a double needle (27G, needle length 3 mm) into the right lateral cerebral ventricle of Slc:ICR mice (male, Japan SLC) over about 1 minute, and stood for 1 minute to induce cognitive impairment and/or movement disorder.
As for a sham treatment group, under pentobarbital anesthesia, 5 μL of PBS was injected using a Hamilton syringe equipped with a double needle into the right lateral cerebral ventricle of Slc:ICR mice over about 1 minute, and stood for 1 minute.
A gait function/automatic gait analysis system (CatWalk XT, ver.9.1, Noldus) was used. The system consisted of a walkway with pressure-sensitive luminescent glass and a light source, a luminescent ceiling, a highly sensitive high-speed camera and an analysis software, and the gait was analyzed by digitizing the brightness of the light emitted by the pressure-sensitive luminescent glass in response to the pressure. The gait data was automatically recorded and analyzed by the analysis software only when a mouse moved straight forward without stopping in the predetermined area on the walkway.
The mice were brought into the experiment room with light off and habituated for not less than 1 hour. A mouse was placed in the apparatus, and allowed to walk freely until 6 running data were obtained for each individual. The first three running data amenable to analyze were taken up, and their mean was calculated.
At 60 minutes before the test, istradefylline (suspended in 0.5 w/v % aqueous MC solution, and prepared to 0.5 mL per 100 g body weight of a mouse on the administration day) was orally administered at a dose of 1.0 mg/kg, or a vehicle (0.5 w/v % aqueous MC solution) free of the test compound was orally administered at 0.5 mL per 100 g body weight of a mouse on the administration day.

[2] = tested on: Slc:ICR mice; assay: Spontaneous alternation task test (Y-maze), evaluation of cognitive function in NAC61-95 α-synucleinopathy model; assay type: in vivo; conditions: NAC61-95-treated mice
Protocol: as §1, §2, §3
Under pentobarbital (Somnopentyl, Kyoritsuseiyaku) (50 mg/kg, i.p.) anesthesia, 5 μL of NAC61-95 solution was injected using a Hamilton syringe (10 μL) equipped with a double needle (27G, needle length 3 mm) into the right lateral cerebral ventricle of Slc:ICR mice (male, Japan SLC) over about 1 minute, and stood for 1 minute to induce cognitive impairment and/or movement disorder. […]
Mice were brought into the experiment room from the previous day of test for habituation. […] Entry of all four limbs of a mouse into one arm was defined as entry into the arm, and the order of entry of the mouse into the arm was recorded. A behavior of successive entry into all three different arms was defined as spontaneous alternation behavior, and the percentage of alternation behavior was calculated by the following calculation formula. […]

[3] = 1.0 mg/kg orally 60 minutes before the test, mean±standard error

## CCn1c(=O)c2c(nc(/C=C/c3ccc(OC)c(OC)c3)n2C)n(CC)c1=O [istradefylline]
[1]; AA: right forepaw→right hindpaw→left forepaw→left hindpaw, 1.0 mg/kg orally, mean±standard error
  gait pattern (mean) AA: 4.3 ± 2.8
[1]; AB: right forepaw→left hindpaw→left forepaw→right hindpaw, 1.0 mg/kg orally, mean±standard error
  gait pattern (mean) AB: 76.7 ± 7.1
[1]; CA: right forepaw→left forepaw→right hindpaw→left hindpaw, 1.0 mg/kg orally, mean±standard error
  gait pattern (mean) CA: 10.3 ± 3.6
[1]; CB: right forepaw→left hindpaw→right hindpaw→left forepaw, 1.0 mg/kg orally, mean±standard error
  gait pattern (mean) CB: 8.7 ± 4.3
[1]; 1.0 mg/kg orally
  change in gait pattern CB: decreased
  improvement ratio, gait pattern CB: 100%
  improvement ratio, maximum brightness ratio of the left hindpaw: 111%
  movement disorder induced by NAC61-95 treatment: improved
[1]; [3]
  maximum brightness ratio, left forepaw: 51.5 ± 1.8
  maximum brightness ratio, left hindpaw: 65.3 ± 1.7
  maximum brightness ratio, right forepaw: 52.5 ± 2.4
  maximum brightness ratio, right hindpaw: 61.9 ± 2.4
  print area, left forepaw: 0.35 ± 0.02
  print area, left hindpaw: 0.38 ± 0.04
  print area, right forepaw: 0.33 ± 0.03
  print area, right hindpaw: 0.38 ± 0.04
[1]; 1.0 mg/kg orally, p<0.05, Student's t-test
  change in the maximum brightness ratio of the left hindpaw: significant increase
[1]; median, 1.0 mg/kg orally
  gait pattern (median) AA: 0.0
  gait pattern (median) AB: 84.6
  gait pattern (median) CA: 6.7
  gait pattern (median) CB: 0.0
[2]; 1.0 mg/kg orally
  cognitive impairment by NAC61-95 treatment: improved
[2]; [3]
  alternation behavior (%): 66.4 ± 1.4%
[2]; 1.0 mg/kg orally, p<0.05, Aspin-Welch test
  alternation behavior as compared to the vehicle administration group: significantly high
